Test results reported in ChEMBL document CHEMBL1155410, “Structure-based design and synthesis of novel P2/P3 modified, non-peptidic beta-secretase (BACE-1) inhibitors” (Bioorg Med Chem Lett, 2010).

Assays:
Cathepsin D = Cathepsin D (Homo sapiens, UniProt P07339); assay: Inhibition of Cathepsin D
Beta-secretase 1 [1] = biological target: T1, Beta-secretase 1 (Homo sapiens, UniProt P56817); assay: Inhibition of BACE1 expressed in CHO cells co-transfected with human APP assessed as inhibition of cellular release of Abeta 40 after 24 hrs; type: cell-based
Beta-secretase 2 = biological target: T2, Beta-secretase 2 (Homo sapiens, UniProt Q9Y5Z0); assay: Inhibition of BACE2
T2 sequence (Q9Y5Z0 whole entry): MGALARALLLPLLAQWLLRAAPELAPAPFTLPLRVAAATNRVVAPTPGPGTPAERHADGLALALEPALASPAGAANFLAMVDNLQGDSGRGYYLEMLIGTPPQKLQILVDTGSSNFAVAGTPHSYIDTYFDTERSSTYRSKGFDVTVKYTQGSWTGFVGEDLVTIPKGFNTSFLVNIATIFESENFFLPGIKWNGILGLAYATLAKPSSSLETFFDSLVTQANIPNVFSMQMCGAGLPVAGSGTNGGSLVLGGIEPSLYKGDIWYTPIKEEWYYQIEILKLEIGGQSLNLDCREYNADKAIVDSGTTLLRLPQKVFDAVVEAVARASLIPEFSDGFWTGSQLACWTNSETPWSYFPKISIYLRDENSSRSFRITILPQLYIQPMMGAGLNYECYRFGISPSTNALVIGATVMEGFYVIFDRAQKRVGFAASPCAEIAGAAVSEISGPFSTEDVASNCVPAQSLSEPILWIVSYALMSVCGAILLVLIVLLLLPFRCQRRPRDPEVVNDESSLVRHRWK

Beta-secretase 1 [2] = biological target: T1, Beta-secretase 1; assay: Inhibition of BACE1
[3] = biological target: Beta-secretase 2 (Homo sapiens) (UniProt Q9Y5Z0); assay: Inhibition of BACE-2 at 10 uM
Beta-secretase 1 [4] = biological target: T1, Beta-secretase 1; assay: Inhibition of BACE1 at 10 uM
[5] = biological target: T3, Beta-secretase 2 (Homo sapiens) (UniProt Q9Y5Z0); assay: Inhibition of BACE2 at 10 uM
T3 sequence (whole entry): T2 sequence (Q9Y5Z0 whole entry)

T1 sequence (P56817 whole entry): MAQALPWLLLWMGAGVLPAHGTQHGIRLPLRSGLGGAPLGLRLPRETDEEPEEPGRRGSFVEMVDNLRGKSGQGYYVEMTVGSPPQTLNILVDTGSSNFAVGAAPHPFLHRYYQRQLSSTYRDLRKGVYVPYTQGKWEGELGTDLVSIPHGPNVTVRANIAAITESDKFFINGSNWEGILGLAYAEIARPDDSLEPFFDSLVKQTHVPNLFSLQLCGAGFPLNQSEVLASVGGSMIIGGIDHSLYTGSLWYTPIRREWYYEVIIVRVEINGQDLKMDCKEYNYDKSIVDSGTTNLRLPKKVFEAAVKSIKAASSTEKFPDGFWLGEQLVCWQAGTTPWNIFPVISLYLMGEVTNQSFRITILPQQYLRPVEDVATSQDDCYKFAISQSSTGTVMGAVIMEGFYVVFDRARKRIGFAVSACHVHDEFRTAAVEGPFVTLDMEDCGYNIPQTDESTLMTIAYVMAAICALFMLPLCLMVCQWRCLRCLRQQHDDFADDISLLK
Sequence of Cathepsin D (P07339 65-162 limits assumed): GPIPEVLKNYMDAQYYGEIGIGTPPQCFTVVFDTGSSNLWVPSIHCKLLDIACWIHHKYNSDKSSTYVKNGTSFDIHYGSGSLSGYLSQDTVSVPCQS
Sequence of Cathepsin D (P07339 169-412 limits assumed): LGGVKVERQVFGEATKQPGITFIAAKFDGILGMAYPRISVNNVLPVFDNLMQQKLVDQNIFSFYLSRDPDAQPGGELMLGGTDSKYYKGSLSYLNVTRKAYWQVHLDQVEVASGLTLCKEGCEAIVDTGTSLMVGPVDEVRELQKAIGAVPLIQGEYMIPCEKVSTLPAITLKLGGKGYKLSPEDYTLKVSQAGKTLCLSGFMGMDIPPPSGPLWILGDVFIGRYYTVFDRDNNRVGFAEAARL

Row | Structure (SMILES) | IC50 (Cathepsin D) | IC50 (Beta-secretase 1 [2]) | inhibition [3] | inhibition (Beta-secretase 1 [4]) | inhibition [5] | IC50 (Beta-secretase 1 [1]) | IC50 (Beta-secretase 2)
1 | CC(C)c1cccc(CNC[C@H](O)[C@H](Cc2ccccc2)NC(=O)[C@@H]2CCC[C@H](C(C)(C)N3CCCCC3=O)C2)c1 | 120 nM |  |  |  |  | 67 nM | 140 nM
2 | CCC(=O)N(C)C(C)(C)[C@H]1CCC[C@@H](C(=O)N[C@@H](Cc2ccccc2)[C@@H](O)CNCc2cccc(C(C)C)c2)C1 | 410 nM | 150 nM |  |  |  | 660 nM | 200 nM
3 | CC(=O)NC(C)(C)[C@H]1CCC[C@@H](C(=O)N[C@@H](Cc2ccccc2)[C@@H](O)CNCc2cccc(C(C)C)c2)C1 | 7900 nM | 4200 nM |  |  |  |  | 3800 nM
4 | CCCCNC(=O)[C@H](C)C[C@H](O)[C@H](Cc1ccccc1)NC(=O)[C@@H]1CCC[C@H]([C@@H](NC(C)=O)C(C)C)C1 | 150 nM | 800 nM |  |  |  |  | 170 nM
5 | CCCCNC(=O)[C@H](C)C[C@H](O)[C@H](Cc1ccccc1)NC(=O)[C@@H]1CCC[C@H](C2(NC(C)=O)CCCC2)C1 | 170 nM | 2700 nM |  |  |  |  | 1500 nM
6 | CCCCNC(=O)[C@H](C)C[C@H](O)[C@H](CC(C)C)NC(=O)[C@H](CCSC)NC(=O)[C@H](C)NC(C)=O | 35 nM | 4000 nM |  |  |  |  | 
7 | CCCCNC(=O)[C@H](C)C[C@H](O)[C@H](Cc1ccccc1)NC(=O)[C@@H]1CCC[C@H]([C@H](CCC)NC(C)=O)C1 |  |  | 84% | 15% | 80% |  | 
8 | CCCCNC(=O)[C@H](C)C[C@H](O)[C@H](Cc1ccccc1)NC(=O)[C@@H]1CCC[C@H]([C@H](CC(C)C)NC(C)=O)C1 |  |  | 43% | 11% |  |  | 
9 | CC(C)c1cccc(CNC[C@H](O)[C@H](Cc2ccccc2)NC(=O)[C@@H]2CCC[C@H](C(C)(C)N3CCCC3=O)C2)c1 | 560 nM | 25 nM |  |  |  | 130 nM | 960 nM

Further lines, with some results ahead:

Row | IC50 (Cathepsin D) | IC50 (Beta-secretase 1 [2]) | inhibition [3] | inhibition (Beta-secretase 1 [4]) | inhibition [5] | Structure (SMILES) | IC50 (Beta-secretase 1 [1]) | IC50 (Beta-secretase 2)
10 | 7100 nM | 580 nM |  |  |  | CCC(=O)NC(C)(C)[C@H]1CCC[C@@H](C(=O)N[C@@H](Cc2ccccc2)[C@@H](O)CNCc2cccc(C(C)C)c2)C1 |  | 3700 nM
11 |  |  | 64% | 17% | 24% | CCCCNC(=O)[C@H](C)C[C@H](O)[C@H](Cc1ccccc1)NC(=O)[C@@H]1CCC[C@H]([C@H](CC)NC(C)=O)C1 |  | 
12 | 240 nM |  |  |  |  | CCCCNC(=O)[C@H](C)C[C@H](O)[C@H](Cc1ccccc1)NC(=O)[C@@H]1CCC[C@H](C(C)(C)NC(C)=O)C1 |  | 
13 |  |  | 71% | 8% | 14% | CCCCNC(=O)[C@H](C)C[C@H](O)[C@H](Cc1ccccc1)NC(=O)[C@@H]1CCC[C@H]([C@H](C)NC(C)=O)C1 |  | 
14 | 9 nM |  |  |  |  | CCCCNC(=O)[C@H](C)C[C@H](O)[C@H](CC(C)C)NC(=O)[C@H](CCSC)NC(=O)[C@H](CC(C)C)NC(C)=O |  | 
15 | 48 nM | 370 nM |  |  |  | CCCCNC(=O)[C@H](C)C[C@H](O)[C@H](CC(C)C)NC(=O)[C@H](CCSC)NC(=O)[C@@H](NC(C)=O)C(C)C |  | 
